# Values of other authors as cited in US11564958B2, “Compositions and methods of treatment of Ehlers-Danlos syndromes” (RESOLYS BIO, INC., priority 2017, dated 2023).
# Test system: rheumatoid arthritis
# Settings: reported in U.S. Pat. No. 4,704,273
smiles,measurement,value
"NCCc1c[nH]cn1 [histamine, 4-(2-aminoethyl)-imidazole]",usefulness in alleviating symptoms of rheumatoid arthritis,not be useful
